# Reference: US20100152302A1, “NOVEL CRYSTALLINE FORMS OF ATOVAQUONE” (HETERO DRUGS LIMITED, priority 2007, published 2010)
# Values joined by “and” are separate entries in the source; they are usually repeats but may differ in a detail not shown here. Equal entries are not always repeated.
# How the values were obtained:
# [1] = cited from earlier work
# [2] = Specific surface area by B.E.T. nitrogen absorption analysis; format: physicochemical; conditions: isolated crystalline solid of the example, after drying or spray drying
# Excerpt: Specific surface area is defined in units of square meters per gram (m^2/g). It is usually measured by nitrogen absorption analysis. In this analysis, nitrogen is absorbed on the surface of the substance. The amount of the absorbed nitrogen (as measured during the absorption or the subsequent desorption process) is related to the surface area via a formula known as the B.E.T. formula.
Specific Surface Area [2],Structure (SMILES),solubility in chloroform ([1]; chloroform),solubility in water ([1]; water)
–,"O=C1C(O)=C([C@H]2CC[C@H](c3ccc(Cl)cc3)CC2)C(=O)c2ccccc21 [Atovaquone, trans-2-[4-(4-chlorophenyl)cyclohexyl]-3-hydroxy-1,4-naphthoquinone]",soluble,practically insoluble
0.54 m^2/g,"O=C1C(O)=C([C@H]2CC[C@H](c3ccc(Cl)cc3)CC2)C(=O)c2ccccc21 [atovaquone Form I, trans-2-[4-(4-chlorophenyl)cyclohexyl]-3-hydroxy-1,4-naphthoquinone]",–,–
0.76 m^2/g,"O=C1C(O)=C([C@H]2CC[C@H](c3ccc(Cl)cc3)CC2)C(=O)c2ccccc21 [atovaquone crystalline form A, trans-2-[4-(4-chlorophenyl)cyclohexyl]-3-hydroxy-1,4-naphthoquinone]",–,–
2.84 m^2/g and 3.12 m^2/g,"O=C1C(O)=C([C@H]2CC[C@H](c3ccc(Cl)cc3)CC2)C(=O)c2ccccc21 [atovaquone crystalline form B, trans-2-[4-(4-chlorophenyl)cyclohexyl]-3-hydroxy-1,4-naphthoquinone]",–,–
